According to patent publication EP0498290B1, “Pyridobenzodiazepines, dipyrido [3,2-b:2',3'-e] [1,4]diazepines and their use in the prevention or treatment of HIV infection” (BOEHRINGER INGELHEIM PHARMACEUTICALS INC., priority 1991, dated 1992):
Values after ≈ are worked out from the molar mass of the structure shown. Like-named read-outs stand apart in the source and are kept apart here.

Assays:
[1] = system: HTLV-IIIB strain of HIV-1; experiment: Human T-Cell Culture Assay (syncytia formation in c8166 cells); type: cell-based; conditions: Human immunodeficiency virus 1, IIIB, 96 h, syncytia read four days after virus challenge
Protocol: In order to confirm that compounds which are active in the RT Assay also have the ability to inhibit HIV replication in a living system, compounds according to the invention were also tested in the human T-Cell Culture Assay described below.
Assay Theory: Formation of syncytia is a feature of in vitro cultures of CD4+ T-cells infected with HIV-1. In this assay, T-cells are treated with a putative replication inhibiting compound and then infected with HIV-1. After incubation, the culture is checked for the formation of syncytia. The absence or reduction in the number of syncytia is used as a measure of the test compound's ability to inhibit HIV replication.
Assay Method: The target cells, designated c8166, are a subclone of human lymphoma cells of T-cell origin and are established at an initial density of 5x10^4 per 100 ul in RPMI 1640 (+ 10% fetal bovine serum) culture medium in 96 well flat bottom plates. A selected amount of test compound, dissolved in DMSO, is included. After 24 hours, 50-100 TCID50's (the dose that results in induced effect in 50% of test cultures) of the HTLV-IIIB strain of HIV-1 (2) are inoculated into each culture. Control cultures receive compound or virus only. Four days after virus challenge, cultures are visually examined for the frequency and distribution of virus-induced giant cell syncytia. The percent inhibition by the test compound is determined by comparison with control values. Confirmation of the presence or absence of virus replication is accomplished by harvesting the cell free culture fluids from all experimental groups to determine the presence or absence of infectious progeny through the induction of syncytia formation in secondary human T-cell cultures after 3 days.

in vitro = type: cell-based; conditions: human, c8166 cells
Protocol: In order to roughly assess the cytotoxicity of the compounds provided by the invention, several such compounds were tested in the MTT Cellular Cytotoxicity Assay described below. Compounds having a relatively high EC50 are preferred.
The MTT [3-(4,5-dimethylthiazol-2-yl)-2,5 diphenyl tetrazolium bromide) assay is based on cleavage of tetrazolium bromide by metabolically active cells, resulting in a highly quantitative blue color. This assay has been previously described (1) but has been optimized for the purposes of the testing reported herein.
The c8166 cell line (2), an established human lymphoma suspension cell line grown in RPMI 1640 supplemented with 10% fetal bovine serum, is used as the target cell line in the assay. Cells (100µl) are plated in microtest plate wells at a concentration of 10^5 cells per ml in the presence of varying concentrations of inhibitor. The cells are incubated at 37°C in a humidified CO2 incubator. Five days later, 20µl of MTT (5mg/ml in RPMI 1640, sonicated, 0.2 micron filtered, and stored at 4°C) is added to each well. After 4 hours additional incubation at 37°C, 60µl of Triton-X is added to each well and thoroughly mixed to aid the solubilization of the crystals. Absolute ethanol (5µl) is added to each well and the resulting mixture is incubated for 30 minutes at 60°C and immediately read on a plate reader (Dynatech) at a wavelength of 570nm. […]

HIV-1 RT = target: T1, HIV-1 RT (Human immunodeficiency virus type 1 group M subtype B, UniProt P03367); experiment: Reverse Transcriptase (RT) Assay: RNA-dependent DNA polymerase activity, poly r(C)/oligo d(G) template, 3H-dGTP; type: biochemical
T1 construct: Reverse transcriptase enzyme from the LAV strain of Human Immunodeficiency Virus (HIV-1) (1) was isolated from the bacterial strain JM109; made in house; host or cells: E. coli JM109, clone pBRTprt1+ in vector pIBI21 (lac promoter, IPTG induction)
Excerpt: Utilizing the Reverse Transcriptase (RT) Assay described below, compounds can be tested for their ability to inhibit the RNA-dependent DNA polymerase activity of HIV-1 RT. Certain specific compounds described in the Examples which appear below, were so tested.
Among the enzymes for which Human Immunodeficiency Virus (HIV-1) encodes is a reverse transcriptase (1), so-named because it transcribes a DNA copy from an RNA template. This activity can be quantitatively measured in a cell-free enzyme assay, which has been previously described (2), and is based upon the observation that reverse transcriptase is able to use a synthetic template [poly r(C) primed with oligo d(G)] to transcribe a radio-labelled, acid-precipitable DNA strand utilizing ^3H-dGTP as a substrate.
Reverse transcriptase enzyme from the LAV strain of Human Immunodeficiency Virus (HIV-1) (1) was isolated from the bacterial strain JM109 (3) expressing the DNA clone pBRTprt1+ (2) which is under the control of the lac promotor in the expression vector pIBI21 (4). An overnight culture grown in 2XYT medium (37°C, 225 rpm) (5) supplemented with 100 µg/ml ampicillin for positive selection is inoculated at a 1:40 dilution into M9 medium supplemented with 10µg/ml thiamine, 0.5% casamino acids, and 50 µg/ml ampicillin (5). The culture is incubated (37°C, 225 rpm) until it reaches an OD540 of 0.3-0.4. At that time the repressor inhibitor IPTG (isopropyl β-D-thiogalactopyranoside) is added to 0.5mM, and the mixture is incubated for 2 additional hours. Bacteria are pelleted, resuspended in a 50mM Tris, 0.6mM EDTA, 0.375M NaCl buffer and digested by the addition of lysozyme (1mg/ml) for 30 minutes on ice. The cells are lysed by the addition of 0.2% NP-40 and brought to 1M NaCl.
After removal of the insoluble debris by centrifugation, the protein is precipitated by the addition of 3 volumes of saturated aqueous ammonium sulfate. The enzyme is pelleted, resuspended in RT buffer (50mM Tris pH 7.5, 1mM EDTA, 5mM DTT, 0.1% NP-40, 0.1M NaCl, and 50% glycerol), and stored at -70°C for further use.
b) Composition of 2X concentrated stock reaction mixture used in testing of compounds 1 to 15
Composition of 2X concentrated stock reaction mixture used in testing compounds 16 and 17
The 2X concentrated stock reaction mixture is aliquoted and stored at - 20°C. The mixture is stable and thawed for use in each assay. This enzyme assay has been adapted to a 96 well microtiter plate system, and has been previously described (6). Tris buffer (50 mM, pH 7.4), vehicle (solvent diluted to match the compound dilution), or compounds in vehicle are dispensed into 96-well microtiter plates (10µl/well; 3 wells/compound). The HIV-1 RT enzyme is thawed, diluted in 50mM Tris pH 7.8 (50mM Tris pH 7.4 in the case of compounds 16 and 17) so that fifteen µl of diluted enzyme contain 0.001 Unit (one unit is that amount of enzyme to transform 1 micromole of substrate per minute at 25°C), and fifteen µl are dispensed per well. Twenty µl of 0.12-0.5M EDTA are added to the first three wells of the microtiter plate. EDTA chelates the Mg^++ present and prevents reverse transcription. This group serves as background polymerization which is subtracted from all other groups. Twenty-five ul of the 2X reaction mixture are added to all wells and the assay is allowed to incubate at room temperature for 60 minutes. The assay is terminated by precipitating the DNA in each well with 50µl of 10% trichloracetic acid (TCA) (10% w/v) in sodium pyrophosphate (1% w/v). The microtiter plate is incubated for 15 minutes at 4°C and the precipitate is fixed onto #30 glass fiber paper (Schleicher & Schuell) using a Skatron semi-automatic harvester. The filters are then washed with additional TCA (5%) containing sodium pyrophosphate (1%), rinsed with aqueous ethanol (70%), dried, and transferred to scintillation vials (6). […]

[2] = 10 µg/ml, reaction mixture for compounds 1 to 15 (Tris pH 7.8, KCl, human serum albumin, 6µM 3H-dGTP in 2X mix), read-out: RT Assay % inhibition @ 10 µg/ml
[3] = pH 7.4, read-out: RT Assay % inhibition @ 10 µg/ml

Compound | inhibition at 3 µg/mL [1] [%] | inhibition at 10 µg/mL (HIV-1 RT; [2]) [%] | other results
CCN1c2ncccc2C(C#N)=Nc2c(C)cc(C)nc21 [Example 3, 6-Cyano-2,4-dimethyl-11-ethyl-11H-dipyrido[3,2-b:2',3'-e][1,4]diazepine] | > 50 | – | –
Cc1ccnc2c1N=C(Cl)c1cccnc1N2C1CC1 [Example 1, 6-Chloro-11-cyclopropyl-4-methyl-11H-dipyrido[3,2-b:2',3'-e][1,4]diazepine] | > 90 | – | CC50 at 120 h (in vitro): > 5 µg/mL
CCOC(=O)CSC1=Nc2c(C)ccnc2N(C2CC2)c2ncccc21 [Example 5] | – | 98 | –
2.4-Dimethyl-11-ethyl-6-pyrrolidino-11H-dipyrido[3,2-b:2',3'-e][1,4]diazepine [Example 10] | – | – | RT Assay % inhibition @ 10 µg/ml (HIV-1 RT; 10 µg/ml, reaction mixture for compounds 1 to 15 (Tris pH 7.8, KCl, human serum albumin, 6µM 3H-dGTP in 2X mix)): 91%
Cc1ccnc2c1N=C(S(C)(=O)=O)c1cccnc1N2C1CC1 [Example 14, 11-Cyclopropyl-4-methyl-6-methylsulfonyl-dipyrido[3,2-b:2',3'-e][1,4]diazepine] | – | 100 | –
Cc1ccnc2c1N=C(C#N)c1cccnc1N2C1CC1 [Example 2, 6-Cyano-11-cyclopropyl-4-methyl-11H-dipyrido[3,2-b:2',3'-e][1,4]diazepine] | > 50 | – | CC50 at 120 h (in vitro): 28 µg/mL (≈ 102 µM)
COC1=Nc2ccccc2N(C)c2ncccc21 [Example 17, 5-Methoxy-11-methyl-11H-pyrido[2,3-b][1,5]benzodiazepine] | – | – | inhibition at 10 µg/mL (HIV-1 RT; [3]): 82%
Cc1ccnc2c1N=C(n1ccnc1)c1cccnc1N2C1CC1 [Example 9] | – | 97 | –
CCOC1=Nc2c(C)cccc2Nc2ncccc21 [Example 16, 5-Ethoxy-7-methyl-11H-pyridol[2,3-b][1,5]benzodiazepine] | – | – | inhibition at 10 µg/mL (HIV-1 RT; [3]): 59%
